Tests used:
[1] = molecular target: T1, Slco1a4 (Mus musculus, UniProt Q9EP96); experiment: Uptake by cells ectopically expressing Slco1a4 (in utero electroporation) in live mice; format: in vivo; set-up: FLAG; expressed in transfected cells; host or cells: cortical neurons of live mice, in utero electroporation at E14/E15; conditions: topical cortical administration (50 μM where stated)
T1 sequence (Q9EP96 1-670): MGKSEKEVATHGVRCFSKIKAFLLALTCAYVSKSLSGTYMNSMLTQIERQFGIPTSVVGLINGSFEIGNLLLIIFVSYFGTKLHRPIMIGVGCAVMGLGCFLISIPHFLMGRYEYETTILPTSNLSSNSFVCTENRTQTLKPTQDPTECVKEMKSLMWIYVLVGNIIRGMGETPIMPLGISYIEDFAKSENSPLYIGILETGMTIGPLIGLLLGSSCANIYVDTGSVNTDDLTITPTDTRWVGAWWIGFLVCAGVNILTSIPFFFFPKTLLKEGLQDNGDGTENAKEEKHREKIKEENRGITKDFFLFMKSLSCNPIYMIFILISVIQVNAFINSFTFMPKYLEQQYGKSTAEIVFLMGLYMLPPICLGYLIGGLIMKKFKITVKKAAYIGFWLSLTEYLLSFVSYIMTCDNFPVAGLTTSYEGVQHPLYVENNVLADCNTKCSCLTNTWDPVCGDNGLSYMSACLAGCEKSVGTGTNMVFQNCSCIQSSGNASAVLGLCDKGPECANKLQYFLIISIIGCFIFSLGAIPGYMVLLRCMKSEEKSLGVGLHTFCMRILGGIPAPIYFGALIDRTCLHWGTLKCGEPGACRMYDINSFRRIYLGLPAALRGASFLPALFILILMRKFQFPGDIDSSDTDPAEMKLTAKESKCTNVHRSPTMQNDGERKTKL
Method: IUE is performed at E14 or E15 as previously done. Briefly, timed pregnant mice are anaesthetized with ketamine/xylazine. The abdominal region is shaved, sterilized and a 3 cm midline incision is made in the skin and abdominal muscle. The uterine horns are exposed, and the lateral ventricle of each embryo is pressure injected (Picospritzer II, General Valve) with plasmid DNA (~[…] volume per embryo) at a concentration of […] followed by electroporation with tweezertrodes (50 V, 4-50 ms pulses with I s pulse interval. BTX Harvard Apparatus). The embryos are placed back in the mother womb, and the muscle and skin are sutured. Electroporated pups are aged to postnatal day 30. Imaging is performed through a craniotomy over the transfected hemisphere following dye labeling.
Briefly, animals are anaesthetized via intraperitoneal injections of ketamine/xylazine or via inhaled isoflurane. A region of the skull (3×3 mm) is gently removed with a high-speed drill and the underlying dura is removed. A small glass coverslip is placed over the skull to allow long term optical access for in vivo imaging. […]
One-month-old wild-type mice were anesthetized using a ketamine/xylazine solution at doses of 100 mg/kg and 10 mg/kg, respectively. […] Mice were kept on a heating pad at 37° C., and anesthesia was periodically monitored. […]

[2] = molecular target: T1, Slco1a4; experiment: In vivo two-photon imaging in Slco1a4 knockout mice (Oatp1a/1b cluster knockout); set-up: FLAG; expressed in transfected cells; host or cells: cortical neurons of live mice, in utero electroporation at E14/E15
Method: (§1) Briefly, animals are anaesthetized via intraperitoneal injections of ketamine/xylazine or via inhaled isoflurane. A region of the skull (3×3 mm) is gently removed with a high-speed drill and the underlying dura is removed. A small glass coverslip is placed over the skull to allow long term optical access for in vivo imaging. Labeling with fluorescent dyes is performed either via intravenous injections or topically application to the cortical surface for 20 min prior to glass cover placement. After recovery, in vivo images are acquired using a two-photon microscope (Bruker Technologies) equipped with a multimodal (fixed wavelength 1040 nm and tunable wavelength) InSight X3 two-photon laser (Spectra Physics) and 20× water immersion objective (Zeiss 1.0N.A.). The two-photon laser is appropriately tuned to excite particular fluorescent dyes and proteins as needed. In selected cases, following in vivo imaging, mice will be sacrificed and perfused for follow up immunohistochemistry and high-resolution confocal imaging (Leica SP8) to further confirm colocalization of dyes and cells expressing particular transporters.
One-month-old wild-type mice were anesthetized using a ketamine/xylazine solution at doses of 100 mg/kg and 10 mg/kg, respectively. The fur around the skull area was shaved, and buprenex (0.1 mg per kg) and carprofen (5 mg per kg) were administered subcutaneously. Mice were kept on a heating pad at 37° C., and anesthesia was periodically monitored. The skin was treated with povidone-iodine solution, followed by cleaning with ethanol, and eye ointment was applied. A small skin section was excised to expose the skull. Thinning of the skull was performed in a circular area, followed by delicately lifting of the remaining skull without harm to the underlying brain. Within the circular region, the dura was gently removed using fine forceps, and a 4 mm cover glass was softly pressed onto the brain surface and affixed to the skull. […]

[3] = tested on: brain cell types; experiment: In vivo two-photon imaging of mouse cortex after topical cortical administration of fluorophores
Method: as §1
One-month-old wild-type mice were anesthetized using a ketamine/xylazine solution at doses of 100 mg/kg and 10 mg/kg, respectively. The fur around the skull area was shaved, and buprenex (0.1 mg per kg) and carprofen (5 mg per kg) were administered subcutaneously. Mice were kept on a heating pad at 37° C., and anesthesia was periodically monitored. The skin was treated with povidone-iodine solution, followed by cleaning with ethanol, and eye ointment was applied. A small skin section was excised to expose the skull. Thinning of the skull was performed in a circular area, followed by delicately lifting of the remaining skull without harm to the underlying brain. Within the circular region, the dura was gently removed using fine forceps, and a 4 mm cover glass was softly pressed onto the brain surface and affixed to the skull. Fluorescent dyes were applied either through intravenous injections or topically to the cortical surface for 20 minutes before placing the glass cover. A customized head bar was attached either by adhesive (for acute imaging) or permanently implanted (using dental cement, for chronic imaging) onto the skull. Mice were imaged under a two-photon microscope (Prairie Technologies) with a mode-locked MaiTai tunable laser (Spectra Physics). Imaging was performed with a 20× water immersion objective (Zeiss, 1.0NA). Images were captured at depths up to 300 μm from the pial surface using excitation wavelengths ranging from 750 to 950 nm as previously described. Mice undergoing chronic imaging received a recovery period on a heating pad post-surgery, and buprenex (0.1 mg per kg) and carprofen (5 mg per kg) were administered for 3 days.
Batches of 10 compounds were applied through the craniotomy to the cortical surface before placing a cover glass window. No additional washings were performed, and the cover glass was placed, allowing up to 3 hours of imaging of the cortical surface with a two-photon microscope. Following imaging, the data were analyzed to identify potential patterns of cell-specific labeling. […] Positive batches underwent three additional rounds of imaging, with each batch being sequentially split, until a single compound displaying cell-type-specific labeling was identified. As these compounds were not initially purified, the labeling may have resulted from fluorescent byproducts of synthesis. Consequently, large-scale synthesis, purification and characterization (FIGS. 29A-29D) of the identified compounds were conducted. The purified compounds were subsequently retested using in vivo imaging to confirm cell type specificity.
It was reasoned that the best strategy to identify fluorophores with specific affinity to certain cell types and transport mechanisms would be by direct screening in the intact in vivo brain microenvironment. […]

| SMILES | uptake by neurons ectopically expressing Slco1a4 [1] | astrocyte uptake in knockout mice ([2]; Oatp1a/1b cluster knockout) | endothelial uptake in Slco1a4 knockout mice ([2]; application to cortical surface, concentration not given) | Target ([3]; cell type taking up the compound in vivo (Table 1)) | labeling of other (non-endothelial) cell types ([3]; topical application to cortex) | endothelial cell labeling/uptake after topical application to the brain ([3]; topical cortical application) | endothelial uptake in Slco1a4 knockout mice ([2]; topical cortical administration 50 μM, compared to wildtype) | cellular labeling in cortex ([3]; topical cortical administration, 50 μM, wild type mice) |
| --- | --- | --- | --- | --- | --- | --- | --- | --- |
| O=S(=O)([O-])c1cc(S(=O)(=O)O)ccc1C1=c2cc3c4c(c2Oc2cc(Br)ccc21)CCC[N+]=4CCC3 [Compound 1, 2-(12-bromo-1,2,3,5,6,7-hexahydrochromeno[2,3-f]pyrido[3,2,1-ij]quinolin-4-ium-9-yl)-5-sulfobenzenesulfonate] | only those cells that express SLCO1A2 or SLCO1A4 (as evidenced by the GFP fluorescence (green)) take up compound 1 | Astrocyte uptake is seen in the knockout mice | complete disappearance of endothelial uptake | Endothelial | only endothelial cells are labeled | Highly specific labeling of endothelial cells within capillaries |  |  |
| COc1cc2c(c(OC)c1OC)-c1ccc(OC)c(=O)cc1C(NS(=O)(=O)c1ccc(-c3c4ccc(N(C)C)cc4[o+]c4cc(N(C)C)ccc34)c(S(=O)(=O)[O-])c1)CC2 (stereo not drawn) [Compound 47, 2-(3,6-bis(dimethylamino)xanthylium-9-yl)-5-(N-(1,2,3,10-tetramethoxy-9-oxo-5,6,7,9-tetrahydrobenzo[a]heptalen-7-yl)sulfamoyl)benzenesulfonate] | marked uptake |  |  |  |  |  | complete elimination of Colchicine-eEDiTS uptake | labeling of endothelial processes (arrow) and cell bodies (arrowhead) |

From patent publication US20260272895A1, “METHODS AND KITS FOR DELIVERY OF COMPOUNDS INTO CELLS” (Yale University, priority 2023, published 2026)
